Tested on: Haemophilus influenzae serotype b
Experiment: PRP production in liquid casein hydrolysate (HAC) medium with increasing hemin (sandwich ELISA on supernatant)
Format: cell-based
Conditions: for Mean PRP / PRP in mg/l Assay 1 / PRP in mg/l Assay 2: HAC medium, 16 h
Procedure: The production of PRP obtained after 16 hours of bacterial culture in liquid plant peptones-based culture media in which the heme source was either hemin or protoporphyrin IX of animal origin (porcine protoporphyrin) in disodium salt form, or protoporphyrin IX of purely synthetic origin in disodium salt form was compared. The hemin and protoporphyrin IX concentration ranges in the culture media varied from about 0.010 g/l to about 2 g/l so as to obtain PRP titration curves as a function of the heme source tested and as a function of the plant peptone tested. An enzymatic hydrolysate of garden pea peptone provided by Kerry (Hy pea 7404) and a wheat peptone provided by Organotechnie (19559) were tested at a concentration in the culture medium equivalent to 0.87 g/l of protein nitrogen. By reference to the current methods for the production of PRP, PRP production was also measured in a medium that contains a peptone of animal origin, such as casein hydrolysate (HAC) provided by Solabia at a concentration in the medium equivalent to 0.87 g/l with increased concentrations of hemin (see table III).
1.1) Preparation of the Media • 1.1.1. Stock solution of β-NAD (Fluka) at 1 g/l in water which was ultrafiltered and then sterilized by filtration through 0.22 μm. • 1.1.2. Stock solution of hemin (Sigma) at 0.25 g/l in water was ultrafiltered, comprising 5 ml of 25% aqueous ammonia (Cooper) to aid dissolution. The stock solution was sterilized by filtration through 0.22 μm. • 1.1.3. Stock solution of porcine protoporphyrin IX (Sigma) at 0.25 g/l in ultrafiltered water comprising 5 ml of 25% aqueous ammonia (Cooper) in order to facilitate the dissolution. The stock solution was sterilized by filtration through 0.22 μm. • 1.1.4. Stock solution of synthetic protoporphyrin IX at 0.25 g/l in ultrafiltered water comprising 5 ml of 25% aqueous ammonia (Cooper) in order to facilitate the dissolution. The stock solution was also heated to 80° C. in a water bath with stirring in order to complete the dissolution before being sterilized by filtration through 0.22 μm. The protoporphyrin IX, in disodium salt form, was synthesized according to the method described in the U.S. provisional patent application Ser. No. 12/057,574, filed Mar. 28, 2008 and application Ser. No. 60/943,735 and filed on Jun. 13, 2007 using the steps which are described in scheme 2. • The stock solutions of hemin and protoporphyrin IX were checked for their respective contents of active compounds after sterilizing filtration. The protoporphyrin IX and hemin contents were determined by Reversed Phase High Performance Liquid Chromatography (RP-HPLC). The chromatographic chain comprises a twin head pump module allowing the formation of a binary gradient, a programmable automatic injector, a diode array UV detector and a chromatographic column of the type Synergi 4 μm, Polar RP-80A (150×4.6) mm, ref 00F-4336-E0, Phenomenex. • The stock solution of hemin (Sigma) to be checked after filtration was diluted ⅓ in distilled water. The stock solutions of porcine protoporphyrin IX (Sigma) and of synthetic protoporphyrin IX to be checked after filtration were diluted ¼ in distilled water. In parallel, a calibration series was prepared in ammoniated water ranging from 0.025 g/l to 0.125 g/l of protoporphyrin IX from porcine protoporphyrin IX from Sigma (ref: 25838-5) and a calibration series ranging from 0.050 g/l to 0.150 g/l of hemin from hemin from Sigma (ref: H5533-256). The samples to be checked and the various solutions of the calibration series were injected in a volume of 20 μl (for the hemin solutions and samples) and of 5 μl (for the protoporphyrin IX solutions and samples). The initial mobile phase consisting of a volume for volume mixture of acetonitrile and 10 mM KH2PO4 pH 2.5 is set at a flow rate of 1 ml/min. A discontinuous gradient was then produced from this mobile phase in order to separate the molecules of interest which are detected at a wavelength of 400 nm. […]

## C=CC1=C(C)c2cc3[n-]c(cc4nc(cc5[n-]c(cc1n2)c(C)c5CCC(=O)O)C(CCC(=O)O)=C4C)c(C)c3C=C.[Cl-].[Fe+3] [Hemin, hemin, reference compound]
Hemin 11.8 μg/l
  Mean PRP: 16.8 mg/L
  PRP in mg/l Assay 1: 18.9 mg/L
  PRP in mg/l Assay 2: 14.7 mg/L
Hemin 59 μg/l
  Mean PRP: 80.2 mg/L
  PRP in mg/l Assay 1: 82.7 mg/L
  PRP in mg/l Assay 2: 77.7 mg/L
Hemin 118 μg/l
  Mean PRP: 199.5 mg/L
  PRP in mg/l Assay 1: 183 mg/L
  PRP in mg/l Assay 2: 216 mg/L
Hemin 295 μg/l
  Mean PRP: 314.5 mg/L
  PRP in mg/l Assay 1: 325 mg/L
  PRP in mg/l Assay 2: 304 mg/L
Hemin 590 μg/l
  Mean PRP: 410.5 mg/L
  PRP in mg/l Assay 1: 381 mg/L
  PRP in mg/l Assay 2: 440 mg/L
Hemin 1180 μg/l
  Mean PRP: 414.5 mg/L
  PRP in mg/l Assay 1: 424 mg/L
  PRP in mg/l Assay 2: 405 mg/L
Hemin 1770 μg/l
  Mean PRP: 461.5 mg/L
  PRP in mg/l Assay 1: 404 mg/L
  PRP in mg/l Assay 2: 519 mg/L
Hemin 2360 μg/l
  Mean PRP: 464.5 mg/L
  PRP in mg/l Assay 1: 439 mg/L
  PRP in mg/l Assay 2: 490 mg/L
Casein hydrolysate and hemin-based medium
  hemin concentration to obtain about 400 mg/l of PRP: at least 500 μg/l

From patent US8673617B2, “Culture medium for Haemophilus influenzae type B” (Sanofi Pasteur SA, priority 2007, dated 2014)
